pIC50: −log10 of the molar value.

The test system of this experiment is Pimephales promelas. In words: Ichthyotoxicity in Pimephales promelas assessed as mortality measured every 30 mins for 2 hrs. It counts as organism-based.

In general, pIC50 refers to −log10 of the IC50, conventionally taken in molar units. Turning to `CC(=O)N1CCc2cc3c(c4c2[C@H]1Cc1ccccc1-4)OCO3`, the pIC50 is 3.52.

The values are drawn from ChEMBL document CHEMBL1149007, “The Ichthyotoxic Principles of Zanthoxylum clava-herculis” (J Nat Prod, 1986).
